tested on: ABCA-1 gene; experiment: compounds tested and found to elevate cellular expression of the ABCA-1 gene (Examples 1-6; test not named); assay type: cell-based
Experimental: Activity testing is conducted as described in those patents and patent applications referenced above, and in the Examples below, and by methods apparent to one skilled in the art.

Row | Structure (SMILES) | cellular expression of the ABCA-1 gene
1 | O=C(Nc1nc(-c2ccc(Cl)cc2)cs1)c1cccc(C(F)(F)F)c1 [N-[4-(4-chlorophenyl)(1,3-thiazol-2-yl)][3-(trifluoromethyl)phenyl]carboxamide] | elevate cellular expression of the ABCA-1 gene
2 | O=C(Nc1nc(-c2ccc(Cl)cc2)cs1)c1ccc(OC(F)(F)F)cc1 [N-[4-(4-chlorophenyl)(1,3-thiazol-2-yl)][4-(trifluoromethoxy)phenyl]carboxamide] | elevate cellular expression of the ABCA-1 gene
3 | O=C(Nc1nc(-c2ccc(Cl)cc2)cs1)C1CCCC1 [N-[4-(4-chlorophenyl)(1,3-thiazol-2-yl)]cyclopentylcarboxamide] | elevate cellular expression of the ABCA-1 gene
4 | Cc1cc(C)c2oc(-c3ccc(NC(=O)c4ccccc4Br)cc3)nc2c1 [N-[4-(5,7-dimethylbenzoxazol-2-yl)phenyl](2-bromophenyl)carboxamide] | elevate cellular expression of the ABCA-1 gene
5 | Cc1ccc2nc(-c3ccc(NC(=O)c4ccccc4C)cc3)sc2c1 [N-[4-(6-methylbenzothiazol-2-yl)phenyl](2-methylphenyl)carboxamide] | elevate cellular expression of the ABCA-1 gene
6 | Cc1ccc2nc(-c3ccc(NC(=O)Cc4cccs4)cc3)sc2c1 [N-[4-(6-methylbenzothiazol-2-yl)phenyl]-2-(2-thienyl)acetamide] | elevate cellular expression of the ABCA-1 gene
7 | CCN(CC)CCCC(C)NC(=O)c1cnn(-c2nc(-c3cccc(OC)c3)cs2)c1C (centres unmarked) [N-[4-(diethylamino)-1-methylbutyl]{1-[4-(3-methoxyphenyl)(1,3-thiazol-2-yl)]-5-methylpyrazol-4-yl}carboxamide] | elevate cellular expression of the ABCA-1 gene
8 | CCc1c(C(=O)NC(C)CCCN(CC)CC)cnn1-c1nc(-c2ccc(Br)cc2)cs1 (centres unmarked) [N-[4-(diethylamino)-1-methylbutyl]{1-[4-(4-bromophenyl)(1,3-thiazol-2-yl)]-5-ethylpyrazol-4-yl}carboxamide] | elevate cellular expression of the ABCA-1 gene
9 | CC(=O)Nc1ccc(N=Nc2ccccc2)cc1 [N-[4-(phenyldiazenyl)phenyl]acetamide] | elevate cellular expression of the ABCA-1 gene
10 | O=C(Nc1ncc(-c2ccccc2Cl)s1)c1ccco1 [N-[5-(2-chlorophenyl)(1,3-thiazol-2-yl)]-2-furylcarboxamide] | elevate cellular expression of the ABCA-1 gene
11 | O=C(Nc1ncc(-c2ccccc2Cl)s1)C1CC1 [N-[5-(2-chlorophenyl)(1,3-thiazol-2-yl)]cyclopropylcarboxamide] | elevate cellular expression of the ABCA-1 gene
12 | O=C(Nc1ncc(-c2ccc(F)cc2)s1)c1ccco1 [N-[5-(4-fluorophenyl)(1,3-thiazol-2-yl)]-2-furylcarboxamide] | elevate cellular expression of the ABCA-1 gene
13 | O=C(Nc1ncc(-c2ccc(F)cc2)s1)c1cccs1 [N-[5-(4-fluorophenyl)(1,3-thiazol-2-yl)]-2-thienylcarboxamide] | elevate cellular expression of the ABCA-1 gene
14 | CC(C)(C)c1cc(NC(=O)C(C)(C)S(=O)(=O)c2ccc(C(F)(F)F)cc2)no1 [N-[5-(tert-butyl)isoxazol-3-yl]-2-methyl-2-{[4-(trifluoromethyl)phenyl]sulfonyl}-propanamide] | elevate cellular expression of the ABCA-1 gene
15 | CS(=O)(=O)c1ccc2nc(NC(=O)c3cccs3)sc2c1 [N-[6-(methylsulfonyl)benzothiazol-2-yl]-2-thienylcarboxamide] | elevate cellular expression of the ABCA-1 gene
16 | CCc1c(C(=O)NC23CC4CC(CC(C4)C2)C3)cnn1-c1nc(-c2ccc(C)cc2)cs1 [N-adamantanyl {5-ethyl-1-[4-(4-methylphenyl)(1,3-thiazol-2-yl)]pyrazol-4-yl}carboxamide] | elevate cellular expression of the ABCA-1 gene
17 | O=C(Nc1nc2ccccc2s1)c1sc2ccccc2c1Cl [N-benzothiazol-2-yl(3-chlorobenzo[b]thiophen-2-yl)carboxamide] | elevate cellular expression of the ABCA-1 gene
18 | N#Cc1cccc(C(=O)Nc2nc3ccccc3s2)c1 [N-benzothiazol-2-yl(3-cyanophenyl)carboxamide] | elevate cellular expression of the ABCA-1 gene
19 | O=C(Nc1nc2ccccc2s1)c1cccc(F)c1 [N-benzothiazol-2-yl(3-fluorophenyl)carboxamide] | elevate cellular expression of the ABCA-1 gene
20 | N#Cc1ccc(C(=O)Nc2nc3ccccc3s2)cc1 [N-benzothiazol-2-yl(4-cyanophenyl)carboxamide] | elevate cellular expression of the ABCA-1 gene
21 | CCCCNC(=O)Nc1nc2ccccc2s1 [N-benzothiazol-2-yl(butylamino)carboxamide] | elevate cellular expression of the ABCA-1 gene
22 | CCCNC(=O)Nc1nc2ccccc2s1 [N-benzothiazol-2-yl(propylamino)carboxamide] | elevate cellular expression of the ABCA-1 gene

Row | Structure (SMILES) | cellular expression of the ABCA-1 gene
23 | CC(C)(C)NC(=O)Nc1nc2ccccc2s1 [N-benzothiazol-2-yl(tert-butylamino)carboxamide] | elevate cellular expression of the ABCA-1 gene
24 | O=C(Cc1cccs1)Nc1nc2ccccc2s1 [N-benzothiazol-2-yl-2-(2-thienyl)acetamide] | elevate cellular expression of the ABCA-1 gene
25 | N#Cc1c(C(F)(F)F)cc(-c2cccs2)nc1SCC(=O)Nc1nc2ccccc2s1 [N-benzothiazol-2-yl-2-[3-cyano-6-(2-thienyl)-4-(trifluoromethyl)(2-pyridylthio)]acetamide] | elevate cellular expression of the ABCA-1 gene
26 | O=C(Nc1nc2ccccc2s1)c1ccco1 [N-benzothiazol-2-yl-2-furylcarboxamide] | elevate cellular expression of the ABCA-1 gene
27 | O=C(Nc1nc2ccccc2s1)c1ccccn1 [N-benzothiazol-2-yl-2-pyridylcarboxamide] | elevate cellular expression of the ABCA-1 gene
28 | O=C(Nc1nc2ccccc2s1)c1cccs1 [N-benzothiazol-2-yl-2-thienylcarboxamide] | elevate cellular expression of the ABCA-1 gene
29 | O=C(CCC1CCCC1)Nc1nc2ccccc2s1 [N-benzothiazol-2-yl-3-cyclopentylpropanamide] | elevate cellular expression of the ABCA-1 gene
30 | O=C(Nc1nc2ccccc2s1)c1ccncc1 [N-benzothiazol-2-yl-4-pyridylcarboxamide] | elevate cellular expression of the ABCA-1 gene
31 | O=C(Nc1nc2ccccc2s1)c1cnn(-c2ccc(Cl)cc2)c1C(F)(F)F [N-benzothiazol-2-yl[1-(4-chlorophenyl)-5-(trifluoromethyl)pyrazol-4-yl]carboxamide] | elevate cellular expression of the ABCA-1 gene
32 | CCCc1c(C(=O)Nc2nc3ccccc3s2)cnn1-c1ccc(Cl)cc1 [N-benzothiazol-2-yl[1-(4-chlorophenyl)-5-propylpyrazol-4-yl]carboxamide] | elevate cellular expression of the ABCA-1 gene
33 | O=C(Nc1nc2ccccc2s1)c1cnn(Cc2ccccc2)c1 [N-benzothiazol-2-yl[1-benzylpyrazol-4-yl]carboxamide] | elevate cellular expression of the ABCA-1 gene
34 | O=C(Nc1nc2ccccc2s1)c1cnn(-c2ccccc2)c1C(F)(F)F [N-benzothiazol-2-yl[1-phenyl-5-(trifluoromethyl)pyrazol-4-yl]carboxamide] | elevate cellular expression of the ABCA-1 gene
35 | O=C(Nc1nc2ccccc2s1)c1cc(C(F)(F)F)cc(C(F)(F)F)c1 [N-benzothiazol-2-yl[3,5-bis(trifluoromethyl)phenyl]carboxamide] | elevate cellular expression of the ABCA-1 gene
36 | Cc1onc(-c2ccccc2Cl)c1C(=O)Nc1nc2ccccc2s1 [N-benzothiazol-2-yl[3-(2-chlorophenyl)-5-methylisoxazol-4-yl]carboxamide] | elevate cellular expression of the ABCA-1 gene
37 | Cc1onc(-c2c(F)cccc2Cl)c1C(=O)Nc1nc2ccccc2s1 [N-benzothiazol-2-yl[3-(6-chloro-2-fluorophenyl)-5-methylisoxazol-4-yl]carboxamide] | elevate cellular expression of the ABCA-1 gene
38 | O=C(Nc1cccc(Cl)c1)Nc1nc2ccccc2s1 [N-benzothiazol-2-yl[(3-chlorophenyl)amino]carboxamide] | elevate cellular expression of the ABCA-1 gene
39 | O=C(Nc1nc2ccccc2s1)C1CCC1 [N-benzothiazol-2-ylcyclobutylcarboxamide] | elevate cellular expression of the ABCA-1 gene
40 | O=C(Nc1nc2ccccc2s1)c1ccno1 [N-benzothiazol-2-ylisoxazol-5-ylcarboxamide] | elevate cellular expression of the ABCA-1 gene
41 | CCCCC(=O)Nc1nc2ccccc2s1 [N-benzothiazol-2-ylpentanamide] | elevate cellular expression of the ABCA-1 gene
42 | Cc1ccc(-c2csc(-n3ncc(C(=O)NC4CC5CCC4C5)c3C)n2)cc1 (centres unmarked) [N-bicyclo[2.2.1]hept-2-yl {5-methyl-1-[4-(4-methylphenyl)(1,3-thiazol-2-yl)]pyrazol-4-yl}carboxamide] | elevate cellular expression of the ABCA-1 gene
43 | CCCCN(Cc1ccc(OCc2ccccc2)cc1)C(=O)Nc1ccc(SC)cc1 [N-butyl[(4-thiomethylphenyl)amino]-N-{[4-(phenylmethoxy)phenyl]methyl}-carboxamide] | elevate cellular expression of the ABCA-1 gene
44 | Cc1c(C(=O)NC2CC2)cnn1-c1nc(-c2ccccc2)cs1 [N-cyclopropyl[5-methyl-1-(4-phenyl(1,3-thiazol-2-yl))pyrazol-4-yl]carboxamide] | elevate cellular expression of the ABCA-1 gene
